Assay results: US9458170B2, “Compound of camptothecin and preparation and use thereof” (YULIANG LI, priority 2012, dated 2016)

How the values were obtained:
Format in all cases: cell-based
[1] = test system: human lung cancer A549 cells; test: Cell Titre Glo luminescent cell viability assay, A549; settings: 72 h, incubated 3 days, 0.3 nM~10 μM, 0.1% DMSO
Procedure: (§1) The human lung cancer A549 cells were cultured in DMEM medium (Gibco®) supplemented with 10% fetal bovine serum (Hyclone®), and human colon cancer SW620, HT-29 cells and human prostate cancer PC-3 cells were cultured in RPMI-1640 medium (Gibco®) supplemented with 10% fetal bovine serum (Hyclone®). The cells described above were cultured in 25 cm^2 or 75 cm^2 plastic cell culture flask (Corning®) filled with 95% air and 5% CO2 at 37° C., for 2˜3 passages per week. Cells were seeded in 96 well cell culture plates (Corning®) at a density of 1×10^3 cells/well (A549), 2×10^3 cells/well (SW620 and HT-29), 3×10^3 cells/well (PC-3), 195 μL/well, and cultured at 37° C., under 95% air and 5% CO2. After 24 h, compounds of this disclosure were added. All the compounds (dissolved in 100% DMSO) were serially diluted three times by 100% DMSO starting from 10 mM. 4 μL of the solution of each concentration was added to 96 μL serum free medium, respectively, and 5 μL diluted solution by medium was added to the culture plates seeded with the cancer cells. The final concentration of DMSO in culture medium was 0.1%, and the final concentration of the compound was 0.3 nM˜10 μM. The said cells were incubated at 37° C. for 3 days. 3 Days later, the viabilities of viable cells were measured by luminescent plate reader according to the reaction of ATP and luciferase (Cell Titre Glo® Luminescent Cell Viability Assay, Promega). This method can be used to evaluate effectiveness of the compounds according to their influences on the cell growth. The dose response curves were generated by the obtained data, and IC50 values were calculated with the program Prism.

[2] = test system: human colon cancer HT-29 cells; test: Cell Titre Glo luminescent cell viability assay, HT-29; settings: 72 h, incubated 3 days, 0.3 nM~10 μM, 0.1% DMSO
Procedure: as §1

[3] = test system: human prostate cancer PC-3 cells; test: Cell Titre Glo luminescent cell viability assay, PC-3; settings: 72 h, incubated 3 days, 0.3 nM~10 μM, 0.1% DMSO
Procedure: as §1

[4] = test system: human colon cancer SW620 cells; test: Cell Titre Glo luminescent cell viability assay, SW620; settings: SW-620, 72 h, incubated 3 days, 0.3 nM~10 μM, 0.1% DMSO
Procedure: as §1

| SMILES | IC50 [1] | IC50 [2] | IC50 [3] | IC50 [4] |
| --- | --- | --- | --- | --- |
| CC[C@@]1(O)C(=O)OCc2c1cc1n(c2=O)Cc2cc3cc(OC)ncc3nc2-1 [Example 1, (S)-4-ethyl-4-hydroxy-9-methoxy-1H-pyrano[3′,4′:6,7]indolizino[1,2-b][1,7]naphthyridine-3,14(4H,12H)-dione] | < 100 nM | < 100 nM | < 500 nM | < 100 nM |
| CC[C@@]1(O)C(=O)OCc2c1cc1n(c2=O)Cc2cc3c(OC)nccc3nc2-1 [Example 2, (S)-7-ethyl-7-hydroxy-1-methoxy-7H-pyrano[3′,4′:6,7]indolizino[1,2-b][1,6]naphthyridine-8,11(10H,13H)-dione] | > 1000 nM | < 1000 nM | > 1000 nM | < 500 nM |
| CC[C@@]1(O)C(=O)OCc2c1cc1n(c2=O)Cc2cc3c(O)nccc3nc2-1 [Example 3, (S)-7-ethyl-1,7-dihydroxy-7H-pyrano[3′,4′:6,7]indolizino[1,2-b][1,6]naphthyridine-8,11(10H,13H)-dione] | < 500 nM | < 1000 nM | > 1000 nM | < 500 nM |
| CC[C@@]1(O)C(=O)OCc2c1cc1n(c2=O)Cc2cc3c(N(C)C)nccc3nc2-1 [Example 4, (S)-1-(dimethylamino)-7-ethyl-7-hydroxy-7H-pyrano[3′,4′:6,7]indolizino[1,2-b][1,6]naphthyridine-8,11(10H,13H)-dione] | < 100 nM | > 1000 nM | < 500 nM | < 100 nM |
| CC[C@@]1(O)C(=O)OCc2c1cc1n(c2=O)Cc2cc3nc(OC)ccc3nc2-1 [Example 5, (S)-7-ethyl-7-hydroxy-2-methoxy-7H-pyrano[3′,4′:6,7]indolizino[1,2-b][1,5]naphthyridine-8,11(10H,13H)-dione] | < 100 nM | < 500 nM | < 500 nM | < 100 nM |
| CC[C@@]1(O)C(=O)OCc2c1cc1n(c2=O)Cc2cc3cc4c(cc3nc2-1)CCO4 [Example 6, (S)-7-ethyl-7-hydroxy-10,13-dihydro-2H-furo[2,3-g]pyrano[3′,4′:6,7]indolizino [1,2-b]quinoline-8,11(3H,7H)-dione] | > 1000 nM | < 1000 nM | > 1000 nM | < 500 nM |
| CC[C@@]1(O)C(=O)OCc2c1cc1n(c2=O)Cc2cc3cc(OC)c(O)cc3nc2-1 [Example 7, (S)-4-ethyl-4,8-dihydroxy-9-methoxy-1H-pyrano[3′,4′:6,7]indolizino[1,2-b]quinoline-3,14(4H,12H)-dione] | < 100 nM | < 100 nM | < 100 nM | < 100 nM |
| CC[C@@]1(O)C(=O)OCc2c1cc1n(c2=O)Cc2cc3cc(O)c(F)cc3nc2-1 [Example 8, (S)-4-ethyl-8-fluoro-4,9-dihydroxy-1H-pyrano[3′,4′:6,7]indolizino[1,2-b]quinoline-3,14(4H,12H)-dione] | < 100 nM | < 100 nM | < 100 nM | < 100 nM |
| CC[C@@]1(O)C(=O)OCc2c1cc1n(c2=O)Cc2cc3cc(OC)c(F)cc3nc2-1 [Example 9, (S)-4-ethyl-8-fluoro-4-hydroxy-9-methoxy-1H-pyrano[3′,4′:6,7]indolizino[1,2-b]quinoline-3,14(4H,12H)-dione] | < 100 nM | < 100 nM | < 100 nM | < 100 nM |
| CC[C@@]1(O)C(=O)OCc2c1cc1n(c2=O)Cc2cc3ccc(OC)c(O)c3nc2-1 [Example 10, (S)-4-ethyl-4,7-dihydroxy-8-methoxy-1H-pyrano[3′,4′:6,7]indolizino[1,2-b]quinoline-3,14(4H,12H)-dione] | < 500 nM | < 500 nM | < 500 nM | < 100 nM |
| CC[C@@]1(O)C(=O)OCc2c1cc1n(c2=O)Cc2c-1nc1cc(F)c(OC)cc1c2N [Example 11, (S)-11-amino-4-ethyl-8-fluoro-4-hydroxy-9-methoxy-1H-pyrano[3′,4′:6,7]indolizino[1,2-b]quinoline-3,14(4H,12H)-dione] | < 100 nM | < 500 nM | < 100 nM | < 100 nM |
| CC[C@@]1(O)C(=O)OCc2c1cc1n(c2=O)Cc2c-1nc1cc(F)c(OC)cc1c2C [Example 12, (S)-4-ethyl-8-fluoro-4-hydroxy-9-methoxy-11-methyl-1H-pyrano[3′,4′:6,7]indolizino[1,2-b]quinoline-3,14(4H,12H)-dione] | < 100 nM | < 100 nM | < 100 nM | < 100 nM |
